We go through two compounds from ChEMBL document CHEMBL1201862, “PubChem BioAssay data set” (2004).

The structures appear in SMILES notation. Activity calls are given as the source filed them.

Assay [1] can be described thus: Luminescence-based cell-based high throughput dose response assay to identify activators of the DAF-12 from the parasite S. stercoralis (ssDAF-12). Type of assay: functional.
In another assay the target is T1, Insulin-degrading enzyme (Homo sapiens, UniProt P14735).
T1 sequence (P14735 whole entry): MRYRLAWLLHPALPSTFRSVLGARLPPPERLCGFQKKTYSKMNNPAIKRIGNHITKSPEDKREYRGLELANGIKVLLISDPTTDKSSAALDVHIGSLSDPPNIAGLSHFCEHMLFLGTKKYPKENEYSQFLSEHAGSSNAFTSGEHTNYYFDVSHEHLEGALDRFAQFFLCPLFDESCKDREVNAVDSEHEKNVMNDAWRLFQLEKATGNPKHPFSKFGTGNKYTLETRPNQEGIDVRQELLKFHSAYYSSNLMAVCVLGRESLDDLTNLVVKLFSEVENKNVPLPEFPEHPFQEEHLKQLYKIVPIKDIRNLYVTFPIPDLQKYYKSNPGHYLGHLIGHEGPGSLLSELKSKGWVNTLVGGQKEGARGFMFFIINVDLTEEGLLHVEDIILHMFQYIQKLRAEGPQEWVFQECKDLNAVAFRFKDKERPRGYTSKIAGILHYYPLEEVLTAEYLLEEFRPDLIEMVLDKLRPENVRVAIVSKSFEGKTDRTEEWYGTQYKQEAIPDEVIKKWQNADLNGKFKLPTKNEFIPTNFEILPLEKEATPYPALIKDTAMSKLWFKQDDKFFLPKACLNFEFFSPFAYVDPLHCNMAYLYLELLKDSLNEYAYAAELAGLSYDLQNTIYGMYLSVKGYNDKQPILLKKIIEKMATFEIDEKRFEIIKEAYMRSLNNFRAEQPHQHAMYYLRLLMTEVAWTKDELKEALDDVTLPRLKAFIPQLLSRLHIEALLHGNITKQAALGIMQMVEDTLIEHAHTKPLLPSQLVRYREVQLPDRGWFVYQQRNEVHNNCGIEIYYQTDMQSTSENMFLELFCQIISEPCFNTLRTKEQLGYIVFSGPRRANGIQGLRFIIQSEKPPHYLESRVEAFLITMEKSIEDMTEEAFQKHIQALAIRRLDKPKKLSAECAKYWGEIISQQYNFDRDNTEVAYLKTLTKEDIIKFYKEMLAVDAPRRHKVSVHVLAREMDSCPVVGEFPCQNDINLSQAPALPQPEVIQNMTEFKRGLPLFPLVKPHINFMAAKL
The assay is described as follows: Dose Response: Fluorescence polarization-based cell-based high throughput dose response assay for inhibitors of insulin-degrading enzyme (IDE). [Related pubchem assays: 434962 (Primary screen (IDE inhibitors in singlicate)), 449730 (Counterscreen (Cytotoxicity in triplicate)), 435028 (Confirmation (IDE inhibitors in triplicate)), 434984 (Summary …. Format: functional. For orientation: Polarisation of emitted light reports the rotation of a fluorescent probe.

The nature of assay [2]: Counterscreen for IDE inhibitors: Luminescence-based cell-based high throughput dose response assay to identify compounds that are cytotoxic to HEK cells. [Related pubchem assays: 434962 (Primary screen (IDE inhibitors in singlicate)), 449730 (Counterscreen (Cytotoxicity in triplicate)), 435028 (Confirmation (IDE inhibitors in triplicate)) …. Type of assay: functional. Particulars: HEK293. For orientation: Counterscreens check selectivity or assay interference.

In assay [3] the target is T2, Oxysterols receptor LXR-beta (Homo sapiens, UniProt P55055).
T2 sequence (P55055 whole entry): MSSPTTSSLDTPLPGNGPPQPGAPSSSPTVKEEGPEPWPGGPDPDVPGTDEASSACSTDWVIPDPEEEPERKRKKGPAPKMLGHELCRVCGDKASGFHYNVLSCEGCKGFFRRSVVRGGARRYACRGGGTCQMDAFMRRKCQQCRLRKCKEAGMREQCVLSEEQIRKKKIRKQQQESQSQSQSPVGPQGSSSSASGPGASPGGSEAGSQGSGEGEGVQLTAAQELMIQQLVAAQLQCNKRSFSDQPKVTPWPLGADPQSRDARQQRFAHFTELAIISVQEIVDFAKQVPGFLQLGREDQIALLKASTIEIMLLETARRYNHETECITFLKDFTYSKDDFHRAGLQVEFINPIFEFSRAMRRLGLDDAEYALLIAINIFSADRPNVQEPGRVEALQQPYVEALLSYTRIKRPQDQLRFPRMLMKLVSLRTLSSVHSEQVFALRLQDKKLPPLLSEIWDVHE
The assay is described as follows: LXR agonists, Gal4 luciferase reporter, dose response, counter-screen for ssDAF-12 agonist project, cell-based, luminescence, HEK293, S. stercoralis campaign (AID 720737). Format: functional. Particulars: read-out: IC50 (the source's name). For orientation: In a reporter assay the amount or activity of a reporter protein is the signal.

Assay [4] deals with Serine/threonine-protein phosphatase PP1-alpha catalytic subunit (Homo sapiens, UniProt P62136). The assay is described as follows: inhibition of protein phosphatase 1 activity – biochemical, fluorescence, dose response (AID 2394).
Assay [5] addresses T3, Apoptotic protease-activating factor 1 (Homo sapiens, UniProt O14727).
T3 sequence (O14727 whole entry): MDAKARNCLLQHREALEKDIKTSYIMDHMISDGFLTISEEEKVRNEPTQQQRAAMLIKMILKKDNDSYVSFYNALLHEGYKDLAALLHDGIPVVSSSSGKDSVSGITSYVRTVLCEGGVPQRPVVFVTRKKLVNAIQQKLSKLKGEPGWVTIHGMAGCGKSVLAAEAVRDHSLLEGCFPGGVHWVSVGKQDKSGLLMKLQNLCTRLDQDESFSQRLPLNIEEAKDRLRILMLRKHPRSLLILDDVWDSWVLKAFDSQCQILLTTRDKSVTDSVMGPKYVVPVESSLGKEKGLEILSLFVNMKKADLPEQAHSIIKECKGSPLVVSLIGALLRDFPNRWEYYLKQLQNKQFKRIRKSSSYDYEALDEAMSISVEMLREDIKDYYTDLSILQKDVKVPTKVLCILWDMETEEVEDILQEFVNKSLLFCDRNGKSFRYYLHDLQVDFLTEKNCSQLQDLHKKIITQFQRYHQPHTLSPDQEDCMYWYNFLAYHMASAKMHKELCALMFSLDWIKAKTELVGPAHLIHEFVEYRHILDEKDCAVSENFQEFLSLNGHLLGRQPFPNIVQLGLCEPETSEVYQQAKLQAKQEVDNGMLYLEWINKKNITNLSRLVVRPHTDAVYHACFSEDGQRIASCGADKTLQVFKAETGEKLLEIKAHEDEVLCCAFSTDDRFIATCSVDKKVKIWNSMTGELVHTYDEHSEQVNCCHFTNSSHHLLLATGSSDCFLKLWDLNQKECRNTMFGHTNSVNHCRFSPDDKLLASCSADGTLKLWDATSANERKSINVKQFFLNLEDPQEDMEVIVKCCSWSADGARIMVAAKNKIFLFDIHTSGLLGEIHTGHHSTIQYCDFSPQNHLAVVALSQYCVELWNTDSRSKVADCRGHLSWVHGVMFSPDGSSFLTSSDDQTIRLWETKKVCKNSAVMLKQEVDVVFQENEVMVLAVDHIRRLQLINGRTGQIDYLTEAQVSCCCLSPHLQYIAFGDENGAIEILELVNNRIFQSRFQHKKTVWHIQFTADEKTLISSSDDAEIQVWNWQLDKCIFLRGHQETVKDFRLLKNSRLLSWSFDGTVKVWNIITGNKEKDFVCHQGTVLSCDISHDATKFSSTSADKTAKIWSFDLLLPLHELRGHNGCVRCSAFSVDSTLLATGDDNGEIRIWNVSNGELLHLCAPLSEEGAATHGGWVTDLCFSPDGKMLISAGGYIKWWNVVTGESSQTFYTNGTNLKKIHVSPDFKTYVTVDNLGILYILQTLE
Type of assay: functional.

The target of assay [6] is Serine/threonine-protein phosphatase (Homo sapiens, UniProt Q9BPW0). Nature of the assay: inhibition of protein phosphatase 5 activity – biochemical, fluorescence, dose response (AID 2395).

By IC50 is commonly meant the midpoint of a concentration-inhibition curve.

Sequence of Serine/threonine-protein phosphatase PP1-alpha catalytic subunit (P62136 whole entry): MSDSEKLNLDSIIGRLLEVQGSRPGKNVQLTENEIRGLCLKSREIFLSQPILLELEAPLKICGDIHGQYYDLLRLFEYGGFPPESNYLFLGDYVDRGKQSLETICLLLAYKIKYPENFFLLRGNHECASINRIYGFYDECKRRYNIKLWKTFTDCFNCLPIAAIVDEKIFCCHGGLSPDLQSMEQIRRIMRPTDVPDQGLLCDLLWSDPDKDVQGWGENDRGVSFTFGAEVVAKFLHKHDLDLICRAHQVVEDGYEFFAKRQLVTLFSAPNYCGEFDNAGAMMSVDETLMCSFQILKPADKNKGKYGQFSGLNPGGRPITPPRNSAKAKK
Sequence of Serine/threonine-protein phosphatase (Q9BPW0 whole entry): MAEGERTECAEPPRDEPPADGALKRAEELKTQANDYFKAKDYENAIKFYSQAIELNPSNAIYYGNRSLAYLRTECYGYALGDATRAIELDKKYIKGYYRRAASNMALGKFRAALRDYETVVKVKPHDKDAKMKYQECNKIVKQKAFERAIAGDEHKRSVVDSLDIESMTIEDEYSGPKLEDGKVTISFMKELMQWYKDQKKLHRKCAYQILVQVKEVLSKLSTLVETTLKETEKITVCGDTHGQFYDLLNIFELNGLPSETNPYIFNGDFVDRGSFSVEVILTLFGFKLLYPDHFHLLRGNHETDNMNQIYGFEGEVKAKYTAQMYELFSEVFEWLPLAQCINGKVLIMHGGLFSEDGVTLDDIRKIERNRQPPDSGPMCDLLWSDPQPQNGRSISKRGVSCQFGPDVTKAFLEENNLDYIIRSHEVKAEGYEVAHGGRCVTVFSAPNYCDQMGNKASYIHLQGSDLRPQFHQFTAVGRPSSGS

For the compound `C/C(=N\c1cccc(C)c1)c1sc2ccccc2c1O`, the IC50 was > 67.6 µM (inactive) in assay [1], 22.7 µM (not active) on Insulin-degrading enzyme and 43.1 µM (not active) in assay [2]. In addition, the EC50 in assay [3] was > 67.6 µM (inactive).

Regarding `COc1ccc(/C=N/Nc2cc(N(C)C)nc(N(C)C)n2)cc1`, the half-inhibitory concentration (IC50) in assay [4] was > 67 µM (not active); in assay [5] it was 2.36 µM (active); in assay [6] it was 4.01 µM (active).
